Results on 58 molecules are retold here after patent US8785452B2, “Anti-infective compounds” (priority 2008, dated 2014).

Each structure is given as a SMILES string. Read-outs that look alike come from different tables or passages of the source.

This assay has as its system M. tuberculosis H37Rv-GFP. The assay can be described thus: microbe, parasite or virus in culture. The assay is classed as cell-based, Mycobacterium tuberculosis. The following applies: Mycobacterium tuberculosis, H37RV, Macrophage.
[1] abbreviates: confirmation, 20 uM, intracellular, read-out: QIM Confirm % Inhibition 20 uM.
[2] abbreviates: primary screen, 20 μM, intracellular, read-out: Primary QIM % Inhibition.
The mark [3] stands for this setting: read-out: Primary QIM % Inhibition.
The mark [4] stands for this setting: read-out: QIM Confirm % Inhibition 20 uM.

For orientation: inhibition means the change of the read-out against control, counted positive when it falls. As for `CC(=O)COc1c([N+](=O)[O-])ccc(F)c1F` [IPK 000 259 78], the inhibition at 20 µM reads like this: under setting [1], 58.8%; under setting [2], 4.9%.
The corresponding values for `O=C(N/N=C/c1ccccc1)c1ccncc1` [IPK 000 219 27] are 57.4% and 96.9%.
For `O=C(Nc1ccc(NC(=O)c2cccnc2)cc1)C1=CCCS1` [IPK 000 199 70], the inhibition at 20 µM by setting is: under setting [1], 69.6%; under setting [2], 70.5%.
Taken in the same sequence, the figures for `OC1CCCc2c1[nH]c1ccc(Br)cc21` (centres unmarked) [IPK 000 180 76] were 92.1% and 70.6%.
Turning to `CCOc1ccc(C(=O)/C=C/c2ccccc2F)cc1` [IPK 000 172 34], the inhibition at 20 µM runs as follows: under setting [1], 12.5%; under setting [2], -82.4%.
Taken in the same sequence, the figures for `Cc1ccc(NC(=O)c2ccc(CSC3=NCCS3)cc2)c(C)c1` [IPK 000 125 15] were 88.7% and 87.1%.
The corresponding values for `O=C(NCCC1=CCCCC1)c1ccc(Br)o1` [IPK 000 184 56] are 72.7% and 85.1%.
In the case of `O=[N+]([O-])c1ccc(/C=N/c2ccccc2O)s1` [IPK 000 169 76], the inhibition at 20 µM was 16.7% under setting [1] and -71.9% under setting [2].
On to `CC12CC3CC(C)(C1)CC(NC(=O)c1ccc(N4CCCC4)c([N+](=O)[O-])c1)(C3)C2` [IPK 000 230 02], for which the inhibition at 20 µM runs as follows: under setting [3], -7.7%; under setting [4], 40.5%.
As to `O=C(COc1ccc(F)cc1)N/N=C/c1ccc([N+](=O)[O-])o1` [IPK 000 148 04], the inhibition at 20 µM stood at 59.3% under setting [1] and 21.8% under setting [2].
On to `COc1ccc(-c2csc(-c3cccnc3)n2)cc1` [IPK 000 144 22], for which the inhibition at 20 µM runs as follows: under setting [1], 30%; under setting [2], -9.8%.
Take `O=C(COc1ccc(-c2ccccc2)cc1)Nc1nc2ccccc2s1` [IPK 000 142 17]: the inhibition at 20 µM under setting [3] was 84.3% and the inhibition at 20 µM under setting [4] is 82.3%.
On to `Cc1ccc(CNC(=O)c2ccc(F)cc2)cc1` [IPK 000 205 42], for which the inhibition at 20 µM is, setting by setting: under setting [1], 69.3%; under setting [2], 71.5%.
As for `Cc1ccc(/C=N/NC(=O)c2ccncc2)o1` [IPK 000 219 26], the inhibition at 20 µM was found to be 51.4% under setting [1] and 91.1% under setting [2].
Regarding `CCCCOC(=O)c1cc([N+](=O)[O-])c(Sc2nc3ccccc3[nH]2)c([N+](=O)[O-])c1` [IPK 000 141 58], the inhibition at 20 µM runs as follows: under setting [3], 58.2%; under setting [4], 59.2%.
Consider `O=C(Nc1ccc(C(F)(F)F)cc1)Nc1cccc(Cl)c1` [IPK 000 147 54], for which the inhibition at 20 µM runs as follows: under setting [1], 10.1%; under setting [2], -10.9%.
`CSc1ccc(/C=N/c2ccccc2O)cc1` [IPK 000 169 96]: the inhibition at 20 µM is 14.7% under setting [1] and -50.2% under setting [2].
In the case of `CC(NC(=O)c1cc([N+](=O)[O-])cc([N+](=O)[O-])c1)c1ccccc1` (centres unmarked) [IPK 000 046 80], the inhibition at 20 µM turned out to be 76.9% under setting [3] and 64.6% under setting [4].
Turning to `CCCCNC(=O)c1ccc2c(c1)OCO2` [IPK 000 208 53], the inhibition at 20 µM is, setting by setting: under setting [1], 23.3%; under setting [2], 71.6%.
As for `O=[N+]([O-])c1ccc(/C=N/N(CCO)C2=NS(=O)(=O)c3ccccc32)o1` [IPK 000 222 32], the inhibition at 20 µM worked out at 63.2% under setting [1] and 16.2% under setting [2].
As for `COc1cc(/C=N/NC(=O)c2ccncc2)cc(Br)c1OCc1ccccc1Cl` [IPK 000 157 51], the inhibition at 20 µM reads like this: under setting [1], 46.2%; under setting [2], 96%.
As for `CCC1=NN(C(=O)c2ccncc2)C(O)(C(F)(F)F)C1` (centres unmarked) [IPK 000 134 50], the inhibition at 20 µM worked out at 101% under setting [1] and 99.7% under setting [2].
Regarding `O=C(NC1CCCCCC1)c1cc([N+](=O)[O-])cc([N+](=O)[O-])c1` [IPK 000 046 83], the inhibition at 20 µM under setting [3] came out at 75.8% and the inhibition at 20 µM under setting [4] was 61.7%.
For `COc1ccc(/C=C2\c3ccccc3-c3ccc(C(=O)CCCCN4CCCCC4)cc32)cc1OC` [IPK 000 198 54], the inhibition at 20 µM under setting [1] was 77.9% and the inhibition at 20 µM under setting [2] came to 38.6%.
The corresponding values for `COc1ccc(/C=N/Nc2nc(-c3ccc(NC(C)=O)cc3)cs2)cc1` [IPK 000 163 52] are 70.7% and 86.2%.
In the case of `Cc1c(Cl)cccc1/N=C/c1ccc([N+](=O)[O-])o1` [IPK 000 167 54], the inhibition at 20 µM reads like this: under setting [1], 16.5%; under setting [2], 19.5%.
Taken in the same sequence, the figures for `C/C(=N\NC(=S)Nc1cccc(C)c1)c1ccco1` [IPK 000 173 45] were 19.2% and 14.9%.
For `O=C(CCC(=O)Nc1ccccc1)N/N=C/c1ccc([N+](=O)[O-])o1` [IPK 000 262 39], the inhibition at 20 µM by setting is: under setting [1], 29.5%; under setting [2], 2.1%.
As for `NNC(=O)c1ccc(COc2ccc(Cl)cc2Cl)o1` [IPK 000 140 81], the inhibition at 20 µM reads like this: under setting [1], 91.8%; under setting [2], 94.6%.
In the case of `Cc1ccsc1/C=N/NC(=O)Cc1cc(=O)[nH][nH]1` [IPK 000 219 30], the inhibition at 20 µM reads like this: under setting [1], 93%; under setting [2], 104%.
With `c1cc2c3c(cccc3c1)NC1(CCCCCC1)N2` [IPK 000 141 61], the inhibition at 20 µM reads like this: under setting [1], 50.8%; under setting [2], 4.2%.
Taken in the same sequence, the figures for `Nc1nc2ccccc2c(-c2cccc3ccccc23)c1CN1CC1` [IPK 000 222 04] were 85.8% and 65.4%.
Taken in the same sequence, the figures for `CC1=NN(C(N)=S)C(=O)/C1=N/Nc1ccccc1C` [IPK 000 168 32] were 81.9% and 75.7%.
The corresponding values for `COc1cccc(C(O)c2cccs2)c1` (centres unmarked) [IPK 000 171 27] are 95.2% and 95.2%.
Regarding `O=C(Nc1ccc(Cl)c(Cl)c1)c1ccc(Cn2cc(Cl)cn2)cc1` [IPK 000 180 16], the inhibition at 20 µM reads like this: under setting [1], 69.8%; under setting [2], 46.1%.
Taken in the same sequence, the figures for `CC(C)CCNC(=O)c1cccc(Cl)c1` [IPK 000 210 79] were 28.7% and 77.2%.
The corresponding values for `Cc1ccc(-c2c(CN3CCCCC3)c(N)nc3ccccc23)cc1` [IPK 000 222 00] are 86.2% and 74.4%.
The corresponding values for `O=C(Nc1ccc(F)cc1)Nc1ccc(C(F)(F)F)cc1` [IPK 000 147 17] are 40.8% and 11.9%.
For the molecule `CCOc1cc(/C=N\NC(=O)COc2ccc(C(C)C)cc2)ccc1O` [IPK 000 138 40], the inhibition at 20 µM was 86.4% under setting [1] and 75% under setting [2].
The corresponding values for `O=C1Nc2ccccc2/C1=C(\c1ccccc1)c1nc2ccccc2[nH]1` [IPK 000 259 35] are 68.8% and 66%.
With `CS(=O)(=O)c1nnnn1-c1ccccc1` [IPK 000 244 12], the inhibition at 20 µM reads like this: under setting [1], 11.8%; under setting [2], 29.9%.
The corresponding values for `O=C(Nc1ccc(Cl)c(Cl)c1)c1ccc(Cn2cc(Br)cn2)cc1` [IPK 000 180 17] are 34.5% and 63.2%.
On to `CCOc1ccc(NCCCCO)cc1` [IPK 000 172 54], for which the inhibition at 20 µM was found to be 40.4% under setting [1] and 4.1% under setting [2].
Taken in the same sequence, the figures for `Cc1ccn2cc(-c3ccc(F)cc3)nc2c1` [IPK 000 129 91] were 38.2% and -36%.
Taken in the same sequence, the figures for `C=CCc1ccc(OCC(=O)N/N=C/c2ccc([N+](=O)[O-])o2)c(OC)c1` [IPK 000 148 44] were 8.2% and -15.1%.
The corresponding values for `O=C(Nc1ccc(Br)c(Cl)c1)c1cccs1` [IPK 000 169 42] are 76.9% and -64%.
Take `O=[N+]([O-])c1cc(-c2nnc(-c3ccccc3)o2)cc([N+](=O)[O-])c1` [IPK 000 150 85]: the inhibition at 20 µM by setting is: under setting [3], 72.3%; under setting [4], 72.2%.
Turning to `O=C(Nc1ccc(Cl)cc1)Nc1ccc(C(F)(F)F)cc1` [IPK 000 146 98], the inhibition at 20 µM is 26.5% under setting [1] and 55.8% under setting [2].
With `Cc1cccc(C(=O)NCCC(C)C)c1` [IPK 000 210 74], the inhibition at 20 µM under setting [1] amounted to 20.2% and the inhibition at 20 µM under setting [2] was 76.4%.
In the case of `CC/C(=N/Nc1nc(-c2ccc(NC(C)=O)cc2)cs1)c1ccccc1` [IPK 000 163 64], the inhibition at 20 µM reads like this: under setting [1], 74.2%; under setting [2], 74.9%.
As for `O=C(Oc1cccc2cccnc12)c1ccccc1` [IPK 000 251 49], the inhibition at 20 µM came to 27% under setting [3] and 15% under setting [4].
Regarding `C/C(=N/c1ccc(S(=O)(=O)N2CCOCC2)cc1)Nc1ccc(C(=O)O)c(O)c1` [IPK 000 128 37], the inhibition at 20 µM was found to be 26.5% under setting [1] and 43.8% under setting [2].
In the case of `O=[N+]([O-])c1ccc(NNc2ccccc2)c([N+](=O)[O-])c1` [IPK 000 171 46], the inhibition at 20 µM under setting [3] was 24.3% and the inhibition at 20 µM under setting [4] is 72.1%.
Consider `C#C/C(=C/c1ccc(-c2ccc(N3CCCCC3)c([N+](=O)[O-])c2)o1)C(=O)OCC` [IPK 000 229 72], for which the inhibition at 20 µM came to 90.7% under setting [1] and 69.4% under setting [2].
Taken in the same sequence, the figures for `Cc1ccc(NC(=O)c2ccc(F)cc2)cc1Cl` [IPK 000 205 22] were 69.7% and 85.1%.
For `CCC(=O)Nc1ccc(-c2csc(N/N=C/c3ccc(SC)cc3)n2)cc1` [IPK 000 163 27], the inhibition at 20 µM amounted to 17.9% under setting [1] and 69.5% under setting [2].
As to `O=[N+]([O-])c1ccc(/C=N/c2ccc(Cl)c([N+](=O)[O-])c2)o1` [IPK 000 178 24], the inhibition at 20 µM is, setting by setting: under setting [3], -26.4%; under setting [4], -4.1%.
For `NC(=O)c1ccccc1/N=C/c1ccc([N+](=O)[O-])o1` [IPK 000 175 27], the inhibition at 20 µM under setting [1] amounted to 25.8% and the inhibition at 20 µM under setting [2] is -69.7%.
